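These data come from cells grown in 96-well plates and exposed to compound for 48 hours at five concentrations. The concentration for full growth arrest is given as TGI.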
These compounds were tested on XF 498 CNS (assay: inhibition of tumour cell growth, NCI panel, 48 h).

Going from `OCCNCCOc1ccc(/C(=C(/Cl)c2ccccc2)c2ccccc2)cc1` to `c1ccc(CSc2nc3ccccc3nc2-c2cccs2)cc1`, the TGI rises from 18.2 µM to > 100 µM.

`COc1cc(C(=O)C/C(CCC(=O)Nc2ccc(Cl)cc2Cl)=N/NC(=O)C(=O)NN)ccc1O` and `CC(=O)OCCOCNC(=S)N/N=C/c1ccc(Br)s1` cannot be ordered by TGI: > 100 µM for the first, > 100 µM for the second.

Going from `CC1CN1c1c(C(=O)/C=C/c2ccc(Cl)cc2)c(-c2ccccc2)nn(C)c1=O` (stereo not drawn) to `CCN(CC)CCNC(=O)c1ccc(C)c(OCc2ccccc2)c1[N+](=O)[O-]`, the TGI rises from 5.5 µM to 39.7 µM (7.2-fold).

Each compound was assayed on HL-60(TB) leukemia (assay: inhibition of tumour cell growth, NCI panel, 48 h).

Going from `OCCNCCOc1ccc(/C(=C(/Cl)c2ccccc2)c2ccccc2)cc1` to `c1ccc(CSc2nc3ccccc3nc2-c2cccs2)cc1`, the TGI rises from 4.52 µM to > 100 µM.

`COc1cc(C(=O)C/C(CCC(=O)Nc2ccc(Cl)cc2Cl)=N/NC(=O)C(=O)NN)ccc1O` and `CC(=O)OCCOCNC(=S)N/N=C/c1ccc(Br)s1` cannot be ordered by TGI: > 100 µM for the first, > 40.2 µM for the second.

Going from `CC1CN1c1c(C(=O)/C=C/c2ccc(Cl)cc2)c(-c2ccccc2)nn(C)c1=O` (stereo not drawn) to `CCN(CC)CCNC(=O)c1ccc(C)c(OCc2ccccc2)c1[N+](=O)[O-]`, the TGI rises from 5.22 µM to 53.3 µM (10-fold).

With `COc1cc(C(=O)N2CCc3c([nH]c4c([N+](=O)[O-])c(OC)ccc34)C2C)cc(OC)c1OC` (stereo not drawn) the TGI was > 100 µM.

These compounds were tested on HOP-92 NSCLC (assay: inhibition of tumour cell growth, NCI panel, 48 h).

`COc1cc(C(=O)C/C(CCC(=O)Nc2ccc(Cl)cc2Cl)=N/NC(=O)C(=O)NN)ccc1O` and `CC(=O)OCCOCNC(=S)N/N=C/c1ccc(Br)s1` cannot be ordered by TGI: > 100 µM for the first, > 100 µM for the second.

`c1ccc(CSc2nc3ccccc3nc2-c2cccs2)cc1` and `CC1CN1c1c(C(=O)/C=C/c2ccc(Cl)cc2)c(-c2ccccc2)nn(C)c1=O` (stereo not drawn) cannot be ordered by TGI: > 100 µM for the first, > 10 µM for the second.

`CCN(CC)CCNC(=O)c1ccc(C)c(OCc2ccccc2)c1[N+](=O)[O-]` was tested, and the TGI was 83.2 µM.

Each compound was assayed on DLD-1 colon (assay: inhibition of tumour cell growth, NCI panel, 48 h).

Going from `OCCNCCOc1ccc(/C(=C(/Cl)c2ccccc2)c2ccccc2)cc1` to `c1ccc(CSc2nc3ccccc3nc2-c2cccs2)cc1`, the TGI rises from 27.4 µM to > 100 µM.

`COc1cc(C(=O)C/C(CCC(=O)Nc2ccc(Cl)cc2Cl)=N/NC(=O)C(=O)NN)ccc1O` and `CC(=O)OCCOCNC(=S)N/N=C/c1ccc(Br)s1` cannot be ordered by TGI: > 100 µM for the first, > 100 µM for the second.

Going from `CC1CN1c1c(C(=O)/C=C/c2ccc(Cl)cc2)c(-c2ccccc2)nn(C)c1=O` (stereo not drawn) to `CCN(CC)CCNC(=O)c1ccc(C)c(OCc2ccccc2)c1[N+](=O)[O-]`, the TGI rises from 3.45 µM to > 100 µM.

With `COc1cc(C(=O)N2CCc3c([nH]c4c([N+](=O)[O-])c(OC)ccc34)C2C)cc(OC)c1OC` (stereo not drawn) the TGI was > 100 µM.

Each compound was assayed on NCI-H23 lung (assay: inhibition of tumour cell growth, NCI panel, 48 h).

First: OCCNCCOc1ccc(/C(=C(/Cl)c2ccccc2)c2ccccc2)cc1
Second: c1ccc(CSc2nc3ccccc3nc2-c2cccs2)cc1
The TGI of the first is lower: 28.4 µM for the first, > 100 µM for the second.

`COc1cc(C(=O)C/C(CCC(=O)Nc2ccc(Cl)cc2Cl)=N/NC(=O)C(=O)NN)ccc1O` and `CC(=O)OCCOCNC(=S)N/N=C/c1ccc(Br)s1` cannot be ordered by TGI: > 100 µM for the first, > 100 µM for the second.

First: CC1CN1c1c(C(=O)/C=C/c2ccc(Cl)cc2)c(-c2ccccc2)nn(C)c1=O (stereo not drawn)
Second: CCN(CC)CCNC(=O)c1ccc(C)c(OCc2ccccc2)c1[N+](=O)[O-]
The TGI of the first is lower: 6.97 µM for the first, > 100 µM for the second.

With `COc1cc(C(=O)N2CCc3c([nH]c4c([N+](=O)[O-])c(OC)ccc34)C2C)cc(OC)c1OC` (stereo not drawn) the TGI was > 100 µM.

The compounds below were run on RXF 393 renal (assay: inhibition of tumour cell growth, NCI panel, 48 h).

Going from `OCCNCCOc1ccc(/C(=C(/Cl)c2ccccc2)c2ccccc2)cc1` to `CCN(CC)CCNC(=O)c1ccc(C)c(OCc2ccccc2)c1[N+](=O)[O-]`, the TGI rises from 14.7 µM to > 91.3 µM.

`COc1cc(C(=O)C/C(CCC(=O)Nc2ccc(Cl)cc2Cl)=N/NC(=O)C(=O)NN)ccc1O` and `CC(=O)OCCOCNC(=S)N/N=C/c1ccc(Br)s1` cannot be ordered by TGI: > 100 µM for the first, > 100 µM for the second.

Compared with `CC1CN1c1c(C(=O)/C=C/c2ccc(Cl)cc2)c(-c2ccccc2)nn(C)c1=O` (stereo not drawn), `COc1cc(C(=O)N2CCc3c([nH]c4c([N+](=O)[O-])c(OC)ccc34)C2C)cc(OC)c1OC` (stereo not drawn) is 11-fold higher in TGI: 8.4 µM for the first, 91.2 µM for the second.

Each compound was assayed on NCI-H460 lung (assay: inhibition of tumour cell growth, NCI panel, 48 h).

First: OCCNCCOc1ccc(/C(=C(/Cl)c2ccccc2)c2ccccc2)cc1
Second: c1ccc(CSc2nc3ccccc3nc2-c2cccs2)cc1
The TGI of the first is lower: 18.2 µM for the first, > 100 µM for the second.

`COc1cc(C(=O)C/C(CCC(=O)Nc2ccc(Cl)cc2Cl)=N/NC(=O)C(=O)NN)ccc1O` and `CC(=O)OCCOCNC(=S)N/N=C/c1ccc(Br)s1` cannot be ordered by TGI: > 100 µM for the first, > 100 µM for the second.

First: CC1CN1c1c(C(=O)/C=C/c2ccc(Cl)cc2)c(-c2ccccc2)nn(C)c1=O (stereo not drawn)
Second: CCN(CC)CCNC(=O)c1ccc(C)c(OCc2ccccc2)c1[N+](=O)[O-]
The TGI of the first is lower: 4.12 µM for the first, > 100 µM for the second.

With `COc1cc(C(=O)N2CCc3c([nH]c4c([N+](=O)[O-])c(OC)ccc34)C2C)cc(OC)c1OC` (stereo not drawn) the TGI was > 100 µM.

Each compound was assayed on LOX IMVI melanoma (assay: inhibition of tumour cell growth, NCI panel, 48 h).

Going from `OCCNCCOc1ccc(/C(=C(/Cl)c2ccccc2)c2ccccc2)cc1` to `COc1cc(C(=O)C/C(CCC(=O)Nc2ccc(Cl)cc2Cl)=N/NC(=O)C(=O)NN)ccc1O`, the TGI rises from 16.6 µM to > 100 µM.

`CC(=O)OCCOCNC(=S)N/N=C/c1ccc(Br)s1` was tested, and the TGI was > 100 µM.

Reference: PubChem BioAssay (NCI)
